For data set [1], the target named is histone deacetylase (HeLa nuclear extracts). Briefly: In vitro assay for inhibition of histone deacetylase (example C.1.c, HeLa nuclear extracts). It counts as biochemical. Particulars: HeLa nuclear extract, 45 min at 37° C.; work performed by Reaction Biology Corp. On the procedure: The in vitro assay for inhibition of histone deacetylase (see example C.1) measures the inhibition of HDAC enzymatic activity obtained with the compounds of formula (I).
HeLa nuclear extracts (prepared by high salt extraction of HeLa nuclei, J. D. Dignam et al., S. M. Abmayr et al) were incubated with 9 mg/ml in 0.1M KCl, 20 mM HEPES/NaOH, pH 7.9, 20% (v/v) glycerol, 0.2 mM EDTA, 0.5 mM DTT, 0.5 mM PMSF of enzyme. After 45 min, at 37° C. the deacetylation reaction was terminated. The developer reaction (also at 37° C.) was read in a time dependent manner for an hour. For each experiment, controls (containing HeLa nuclear extract and DMSO without compound) and samples (containing compound dissolved in DMSO and HeLa nuclear extract) were run in parallel. The compounds were tested at concentrations between 10^−5M and 10^−12M. The control sample represented 100% of substrate deactylation. For each sample the activity was expressed as a percentage of the mean value of the controls. Appropriate IC50-values (concentration of the drug, needed to reduce the amount of metabolites to 50% of the control) were computed using the Prism program. Herein the effects of test compounds are expressed as pIC50 (the negative log value of the IC50-value) (see Table F-2). Work was performed by Reaction Biology Corp. (Malvern, Pa., USA).

For data set [2], the system named is HCT116 cells. Nature of the data set: Antiproliferative activity on HCT116 cells (Alamar Blue assay, example C.2). In kind it is cell-based. Particulars: HCT-116, 96 h, Human colon carcinoma HCT116 cells, 4-day incubation, read-out: Cellular activity pIC50 C.2 (converted). On the procedure: Cellular activity of the compounds of formula (I) was determined on HCT116 tumour cells using a colorimetric assay for cell toxicity or survival (Mosmann Tim, Journal of Immunological Methods 65: 55-63, 1983) (see example C.2).
Human colon carcinoma HCT116 cells obtained from the ATCC were cultured in McCoy's 5A medium supplemented with 2 mM L-Glutamine, 50 μg/ml gentamicin and 10% heat inactivated fetal calf serum.
Reagents Used in the Alamar Blue Assay
Resazurin was purchased from Aldrich (Prod. No. 199303). Potassium ferrocyanide, potassium ferricyanide, KH2PO4 and K2HPO4 were purchased from Sigma (Prod. Nos. P9387, P8131, P5655 and P8281, respectively).
Potassium Phosphate Buffer 0.1 M (PPB) was made as follows: 2.72 gram KH2PO4 and 13.86 gram K2HPO4 were dissolved in 500 ml milli-Q H2O, the pH was adjusted to pH 7.4 and the volume was brought to 1 liter with milli-Q H2O; the buffer was filter sterilised and stored at room temperature. Resazurin stock solution (PPB-A) was prepared fresh by dissolving 45 mg resazurin in 15 ml PBS. 30 mM potassium ferricyanide (PPB-B) was prepared by dissolving 0.987 gram potassium ferricyanide in 100 ml PPB. 30 mM potassium ferrocyanide (PPB-C) was prepared by dissolving 1.266 gram potassium ferrocyanide in 100 ml PPB.
Mixture of PPB-A, PPB-B and PPB-C was prepared by mixing equal volumes of the respective solutions. Resazurin work solution (herein termed “Alamar Blue” solution) was prepared by diluting said mixture 20× (vol/vol) in PPB and filter sterilising; the Alamar Blue solution could be kept at 4° C. for a maximum of 2 weeks.
Procedure of the Alamar Blue Assay
For experiments in 384 wells plates the cells were seeded at a density of 4.5×10^3 cells/ml in Falcon 384-well culture plates (Life Technologies, Merelbeke, Belgium), black with clear bottom, in 45 μl culture medium. Cells were allowed to adhere to plastic for 24 hr. The tested compound was pre-diluted (1/50 in culture medium) and 5 μl pre-diluted compound was added to the wells. Following 4-day incubation, 10 μl of the Alamar Blue solution was added to each well and the cells were further incubated for 4 hrs (HCT116) or 24 hrs (PC-3) at 37° C. The fluorescence intensity was measured for each well on a Fluorescence plate reader (Fluorskan, Labsystems, 540 nm excitation and 590 nm emission)
The antiproliferative activity was calculated as percentage of remaining viable cells in treated versus control (untreated cells) conditions. Within an experiment, the result for each experimental condition is the mean of 3 replicate wells. When appropriate, the experiments were repeated to establish full concentration-response curves. When appropriate, IC50-values (concentration of the drug, needed to reduce cell growth to 50% of the control) were computed using probit analysis for graded data (Finney, D. J., Probit Analyses, 2nd Ed. Chapter 10, Graded Responses, Cambridge University Press, Cambridge 1962). Herein the effects of test compounds are expressed as pIC50 (the negative log value of the IC50-value) (see Table F-2).

Where a name gives a salt, the structure may show the parent alone.

`Cn1cc(CNCC2C3CN(c4ncc(C(=O)NO)cn4)CC23)c2ccccc21` (centres unmarked) (as salt: trifluoroacetate) [Compound 1] came in with a melting point of 150 °C.

Regarding `Cn1cc(CNC2C3CN(c4ncc(C(=O)NO)cn4)CC32)c2ccccc21` (centres unmarked) [Compound 2], the “Enzymatic activity pIC50 C.1.c.” value in data set [1] stood at 8.62. The IC50 in data set [2] was 661 nM. With `CCCn1cc(CNCC2C3CN(c4ncc(C(=O)NO)cn4)CC23)c2cc(Cl)ccc21` (centres unmarked) [Compound 6], the IC50 in data set [2] was 35.5 nM. Regarding `Cn1cc(CNCC2C3CN(c4ncc(C(=O)NO)cn4)CC23)c2cc(C#N)ccc21` (centres unmarked) [Compound 5], the IC50 in data set [2] was 398 nM.

Turning to `Cn1cc(CNCC2C3CN(c4ncc(C(=O)NO)cn4)CC23)c2ccccc21` (centres unmarked) [Compound 1], the “Enzymatic activity pIC50 C.1.c.” value in data set [1] was 8.39. In data set [2], the IC50 is 89.1 nM. Regarding `Cn1cc(CNCC2C3CN(c4ncc(C(=O)NO)cn4)CC23)c2cc(F)ccc21` (centres unmarked) [Compound 4], the IC50 in data set [2] is 81.3 nM. Still for that read-out and setting: for `CCCn1cc(CNCC2C3CN(c4ncc(C(=O)NO)cn4)CC23)c2cc(F)ccc21` (centres unmarked) [Compound 7] the value was 25.7 nM; for `Cn1cc(CNCC2C3CN(c4ncc(C(=O)NO)cn4)CC23)c2cc(Cl)ccc21` (centres unmarked) [Compound 3], 75.9 nM. As to `Cn1cc(CNC2C3CN(c4ncc(C(=O)NO)cn4)CC32)c2ccccc21` (centres unmarked) (as salt: trifluoroacetate) [Compound 2], the melting point stood at 157 °C.

The record behind these values is US8476289B2, “Aza-bicyclohexyl substituted indolyl alkyl amino derivatives as novel inhibitors of histone deacetylace” (Janssen Pharmaceutica NV, priority 2008, dated 2013).
